Legend:
[1] = molecular target: Sodium-dependent serotonin transporter (Homo sapiens, UniProt P31645); assay: Displacement of [3H]citalopram from SERT
[2] = molecular target: Sodium-dependent noradrenaline transporter (Homo sapiens, UniProt P23975); assay: Displacement of [3H]nisoxetine from NET
[3] = molecular target: T1, Sodium-dependent dopamine transporter (Homo sapiens, UniProt Q01959); assay: Displacement of [3H]WIN-35 from DAT
[4] = molecular target: T1, Sodium-dependent dopamine transporter; assay: Displacement of [3H]WIN-35 from DAT at 1 uM

Sodium-dependent serotonin transporter, sequence (P31645 whole entry): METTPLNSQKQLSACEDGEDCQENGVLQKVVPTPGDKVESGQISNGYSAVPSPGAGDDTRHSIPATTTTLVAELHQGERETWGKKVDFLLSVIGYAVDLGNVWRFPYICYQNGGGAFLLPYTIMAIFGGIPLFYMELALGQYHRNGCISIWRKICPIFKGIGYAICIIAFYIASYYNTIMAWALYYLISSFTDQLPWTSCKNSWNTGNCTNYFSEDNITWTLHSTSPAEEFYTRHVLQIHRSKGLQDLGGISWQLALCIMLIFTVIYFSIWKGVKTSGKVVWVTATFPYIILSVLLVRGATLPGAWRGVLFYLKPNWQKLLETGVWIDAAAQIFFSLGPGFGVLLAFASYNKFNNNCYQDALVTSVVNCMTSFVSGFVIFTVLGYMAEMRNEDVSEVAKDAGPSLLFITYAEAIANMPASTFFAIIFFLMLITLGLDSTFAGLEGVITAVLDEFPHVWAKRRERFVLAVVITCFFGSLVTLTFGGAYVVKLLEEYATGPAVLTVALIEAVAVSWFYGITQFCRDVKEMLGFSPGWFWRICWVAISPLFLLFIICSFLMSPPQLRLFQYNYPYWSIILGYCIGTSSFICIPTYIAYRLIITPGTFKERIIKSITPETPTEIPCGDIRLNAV
Sodium-dependent noradrenaline transporter, sequence (P23975 whole entry): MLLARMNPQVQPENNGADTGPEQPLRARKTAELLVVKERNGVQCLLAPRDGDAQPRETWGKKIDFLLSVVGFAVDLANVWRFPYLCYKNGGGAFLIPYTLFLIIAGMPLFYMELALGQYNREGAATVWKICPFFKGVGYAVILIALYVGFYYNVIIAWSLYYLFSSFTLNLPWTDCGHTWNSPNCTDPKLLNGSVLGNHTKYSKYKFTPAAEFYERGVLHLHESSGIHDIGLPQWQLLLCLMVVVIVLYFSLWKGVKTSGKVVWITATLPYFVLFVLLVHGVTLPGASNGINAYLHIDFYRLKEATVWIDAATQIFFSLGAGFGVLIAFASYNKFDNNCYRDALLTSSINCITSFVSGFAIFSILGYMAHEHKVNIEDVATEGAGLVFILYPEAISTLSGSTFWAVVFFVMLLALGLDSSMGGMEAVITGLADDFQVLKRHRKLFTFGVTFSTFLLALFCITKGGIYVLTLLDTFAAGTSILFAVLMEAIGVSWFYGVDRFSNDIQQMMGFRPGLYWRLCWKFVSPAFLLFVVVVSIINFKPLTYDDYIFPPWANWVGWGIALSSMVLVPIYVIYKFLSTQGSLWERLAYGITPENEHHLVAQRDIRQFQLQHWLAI
T1 sequence (Q01959 whole entry): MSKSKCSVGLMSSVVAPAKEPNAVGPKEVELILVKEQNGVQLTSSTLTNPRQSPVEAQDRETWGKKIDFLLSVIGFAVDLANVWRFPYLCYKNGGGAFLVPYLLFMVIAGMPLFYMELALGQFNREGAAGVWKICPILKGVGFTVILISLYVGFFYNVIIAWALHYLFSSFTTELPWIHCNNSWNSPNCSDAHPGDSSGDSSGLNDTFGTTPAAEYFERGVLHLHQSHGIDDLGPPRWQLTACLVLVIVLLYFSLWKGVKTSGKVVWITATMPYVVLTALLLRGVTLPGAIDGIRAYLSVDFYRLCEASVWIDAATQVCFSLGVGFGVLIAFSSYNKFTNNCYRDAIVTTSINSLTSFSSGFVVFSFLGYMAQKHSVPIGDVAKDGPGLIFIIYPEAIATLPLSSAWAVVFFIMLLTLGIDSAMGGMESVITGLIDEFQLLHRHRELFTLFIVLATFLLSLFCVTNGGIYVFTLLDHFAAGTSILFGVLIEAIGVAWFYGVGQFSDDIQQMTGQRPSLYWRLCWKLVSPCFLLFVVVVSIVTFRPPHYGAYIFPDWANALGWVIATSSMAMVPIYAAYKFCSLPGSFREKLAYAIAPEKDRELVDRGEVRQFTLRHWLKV

Compound	Ki [1] [nM]	Ki [2] [nM]	Ki [3] [nM]	inhibition [4] [%]
CC(C)CN(Cc1cccc(C(F)(F)F)c1Cl)C1CCNCC1	0.48	420	–	–
CC(C)CN(Cc1ccc(Cl)cc1Cl)C1CCNCC1	0.96	2	230	–
CC(C)(C)CN(Cc1ccccc1C(F)(F)F)C1CCNCC1	4.3	2.7	160	–
CC(C)CN(Cc1ccc(C(F)(F)F)cc1F)C1CCNCC1	5.8	2.2	120	–
CC(C)OCCN(Cc1ccc(F)cc1C(F)(F)F)C1CCNCC1	3	9.7	–	5
CCN(Cc1ccccc1C(F)(F)F)C1CCNCC1	8	61	–	-2
CCOCCN(Cc1ccc(F)cc1C(F)(F)F)C1CCNCC1	2.8	9.6	–	-3
CCCCN(Cc1ccccc1C(F)(F)F)C1CCNCC1	1.5	5.1	–	–
Cc1ccc(CN(CC(C)C)C2CCNCC2)cc1	0.99	69	–	–
CC(C)(C#N)CCN(Cc1ccc(F)cc1C(F)(F)F)C1CCNCC1	0.7	6.2	–	–
CC(C)CN(Cc1cccc(C#N)c1)C1CCNCC1	0.48	690	201	–
CC(C)CN(Cc1ccc(C(F)(F)F)cc1)C1CCNCC1	0.07	300	–	–
COCCCN(Cc1ccc(F)cc1C(F)(F)F)C1CCNCC1	1.1	5.4	–	-7
FC(F)(F)CN(Cc1ccccc1C(F)(F)F)C1CCNCC1	4.6	33	–	–
CC(C)CN(Cc1ccc(F)cc1F)C1CCNCC1	3.1	20	580	–
CC(C)CN(Cc1cc(Cl)ccc1Cl)C1CCNCC1	2.1	5.5	–	–
CCC(CC)CN(Cc1ccccc1C(F)(F)F)C1CCNCC1	6.9	6.1	–	–
CC(C)CN(Cc1cccc(F)c1)C1CCNCC1	–	43	86.5	–
N#CCCN(Cc1ccc(F)cc1C(F)(F)F)C1CCNCC1	0.4	13.3	–	-4
Cc1cccc(CN(CC(C)C)C2CCNCC2)c1	2.2	150	98	–

Compound	Ki [1] [nM]	Ki [2] [nM]	Ki [3] [nM]	inhibition [4] [%]
CC(C)(O)CN(Cc1ccc(F)cc1C(F)(F)F)C1CCNCC1	4	4.2	–	-8
CC(C)CN(Cc1ccccc1C#N)C1CCNCC1	1.2	42	–	–
CCCCN(Cc1ccc(F)cc1C(F)(F)F)C1CCNCC1	1.3	8.3	–	–
CN(Cc1ccccc1C(F)(F)F)C1CCNCC1	–	–	–	3
FC(F)(F)c1ccccc1CN(CC1CC1)C1CCNCC1	1.5	6	–	–
CC(C)CN(Cc1cccc(C(F)(F)F)c1)C1CCNCC1	0.26	255	–	–
Fc1ccc(CN(CC2CC2)C2CCNCC2)c(C(F)(F)F)c1 [listing 1 of 2 here]	0.8	6.1	–	–
Fc1ccc(CN(CC2CCC2)C2CCNCC2)c(C(F)(F)F)c1	2.5	3.1	–	–
COCCCN(Cc1ccccc1C(F)(F)F)C1CCNCC1	2.2	6.8	–	-8
CSc1ccccc1CN(CC(C)C)C1CCNCC1	1.1	3.3	–	–
COCCN(Cc1ccccc1C(F)(F)F)C1CCNCC1	2.5	8.3	–	4
Cc1ccccc1CN(CC(C)C)C1CCNCC1	1.5	3.3	240	–
OCCN(Cc1ccc(F)cc1C(F)(F)F)C1CCNCC1	3.1	95.9	–	-7
CC(C)(O)CCN(Cc1ccc(F)cc1C(F)(F)F)C1CCNCC1	5	–	–	1.3
COc1ccccc1CN(CC(C)C)C1CCNCC1	15	145	–	4
FC(F)(F)CCN(Cc1ccccc1C(F)(F)F)C1CCNCC1	2.8	9.8	–	–
CCCN(Cc1ccccc1C(F)(F)F)C1CCNCC1	2.2	6.5	–	–
CC(C)N(Cc1ccccc1C(F)(F)F)C1CCNCC1	5.6	26	–	–
CC(C)CN(Cc1ccc(F)cc1C(F)(F)F)C1CCNCC1	0.3	1.8	190	–
CC(C)(C#N)CN(Cc1ccc(F)cc1C(F)(F)F)C1CCNCC1	4.2	15.9	–	–

Compound	Ki [1] [nM]	Ki [2] [nM]	Ki [3] [nM]	inhibition [4] [%]
CCCN(Cc1ccc(F)cc1C(F)(F)F)C1CCNCC1	0.8	3.6	–	–
CC(C)CN(Cc1c(F)cccc1C(F)(F)F)C1CCNCC1	4.1	6	–	–
CC(C)CN(Cc1ccccc1Cl)C1CCNCC1	1.6	1.4	83	–
CC(C)CN(Cc1ccc(C#N)cc1)C1CCNCC1	0.28	190	–	–
N#CCCCN(Cc1ccc(F)cc1C(F)(F)F)C1CCNCC1	0.4	13.3	–	10
CC(C)CN(Cc1ccc(F)cc1)C1CCNCC1	1.9	78	200	–
CC(C)CN(Cc1ccccc1)C1CCNCC1	8.4	91	–	–
COc1ccc(F)cc1CN(CC(C)C)C1CCNCC1	1.4	42.1	–	-2
CCC(CC)N(Cc1ccccc1C(F)(F)F)C1CCNCC1	6.8	86	–	–
FC(F)(F)OCCN(Cc1ccccc1C(F)(F)F)C1CCNCC1	17	51	–	-8
N#CCCCN(Cc1ccccc1C(F)(F)F)C1CCNCC1	0.58	21	–	–
CC(C)CN(Cc1ccccc1C(F)(F)F)C1CCNCC1	1.4	3.2	210	–
CC(C)CN(Cc1cc(C(F)(F)F)ccc1Cl)C1CCNCC1	9.6	175	–	–
CC(C)CN(Cc1ccccc1F)C1CCNCC1	–	15	330	–
CC(C)CN(Cc1ccccc1OC(F)(F)F)C1CCNCC1	2.2	7.1	–	–
Cc1ccc(CN(CC(C)C)C2CCNCC2)c(C)c1	0.39	4.8	–	–
CC(C)CN(Cc1cc(F)ccc1C(F)(F)F)C1CCNCC1	7.9	3.4	–	–
COc1ccc(CN(CC(C)C)C2CCNCC2)c(OC)c1	2.2	1060	–	1.8
Fc1ccc(CN(CC2CC2)C2CCNCC2)c(C(F)(F)F)c1 [listing 2 of 2 here]	0.4	6.5	–	–
FC(F)(F)c1ccccc1CN(C1CCCC1)C1CCNCC1	3.6	4.1	–	–
